System: drug (ADR or TAM)-resistant MCF-7 HBC cells
Assay: MTT cell viability assay, drug-resistant cells
Type: cell-based, human
Source text: Routine maintenance and culture of MDA-MB-231, MDA-MB-468, SKBR-3 (all lack ER and have mutant p53), MCF-7, T47D (both have ER and wild-type p53) HBC cells (Runnebaum, I. B., Nagarajan, M., Bowman, M., Soto, D., and Sukumar, S. (1991). Proc. Natl. Acad. Sci. USA 88, 10657-10661), human prostate cancer PC3 and LnCAP cells, HCT-116 human colon cancer, human pancreatic cancer PANC-1 and BxPC-3, Burkett lymphoma Raji, diffuse large B-cell lymphoma WSU-DLCL2, follicular lymphoma WSU-FSCCL cells, cervical cancer HeLa, human mesothelial Met5a, human pleural malignant mesothelioma (MPM), murine MPM AB12 cells (Wang, Y., Rishi, A. K., Puliyappadamba, V. T., Sharma, S., Yang, H., Tarca, A., Dou, Q. P., Lonardo, F., Ruckdeschel, J. C., Pass, H. I., Wali, A. (2010) Can. Chemother. […]
Logarithmically growing cells were either untreated or treated with different agents for various time periods. […] The cell growth inhibition was assessed by using MTT assay. […]

## O=C1N(Cc2ccccc2Cl)c2ccccc2C12NN=C(c1ccccc1)S2 (stereo not shown) [CFM-4, 1-(2-chlorobenzyl)-5′-phenyl-3′H-spiro[indoline-3,2′-[1,3,4]thiadiazol]-2-one]
  proliferation of drug-resistant MCF-7 cells (MTT): inhibited proliferation

Source: patent US9598441B2, “Therapeutic compounds and methods” (Wayne State University, priority 2011, dated 2017)
